Consider 2 compounds from patent US20250275976A1, “Methods of Treating Neuroinflammatory Conditions” (Athira Pharma, Inc., priority 2022, published 2025).

Like-named read-outs stand apart in the source and are kept apart here.

For assay [1], the system named is Rat primary cortical neuron cultures. Particulars: LPS 24 h.
Description: (§1) To assess the neuroprotective effect of compound treatment against inflammatory insult, primary cultured cortical neurons were subjected to lipopolysaccharide (LPS) treatment for 24h along with various compound doses of compounds of Formula (I) or Compound A19. […] Rat primary cortical neuron cultures were grown at 37° C., 5% C02 in Complete Neurobasal Medium supplemented with B27/GDNF/BDNF containing 10% FBS until maturity. 25 μl of culture volume were seeded in a 384-well plate at 5,000 cells/well, and treated with 1 μM, 100 nM, 10 nM, 1 nM, or 0.1 nM of test compound for 15 minutes. Cells were then subjected to 1 μM LPS challenge for 24 hours. Luminescence measurements to assess relative levels of ATP were performed on an Envision plate reader (Perkin Elmer). Data for DMSO control were set to 100% cell viability, and each group (n=4) were averaged and presented as mean±SEM.
For assay [2] the test system is unchanged. Kind of assay: Neuroprotection of rat cortical neurons against LPS challenge (Cell Titer-Glo). Particulars: at at least one dose tested.
Description: as §1
The subject of assay [3] is THP-1-differentiated macrophages. Kind of assay: Pro-inflammatory cytokines in supernatants of LPS-challenged THP-1-differentiated macrophages. Particulars: for Significant reduction in pro-inflammatory cytokine expression: IL-1β / Significant reduction in pro-inflammatory cytokine expression: IL-6 / Significant reduction in pro-inflammatory cytokine expression: TNF-α: LPS 24 hrs. Format: cell-based, human. More on the design: key to Significant reduction in pro-inflammatory cytokine expression: IL-6 / Significant reduction in pro-inflammatory cytokine expression: TNF-α / Significant reduction in pro-inflammatory cytokine expression: IL-1β: “NS” indicates a non-significant reduction in the indicated cytokine; “+” indicates a p value <0.05 in Tukey post test; “++” indicates a p value <0.01 in Tukey post test. The source says: Neuroinflammation plays a crucial role in disease progression and is a complex phenomenon involving various cells that affect many extra- and intracellular signaling pathways and cytokine production. The macrophage of the brain (microglia) is the main agent of innate immunity in the CNS and performs various functions, including neuroprotection, in response to inflammatory signals. Activated microglia participate in developing neuroinflammation, responding to toxic exogenous substances (like LPS) or endogenous substances (like amyloid-beta). Here, THP-1 cells were used as an in-vitro cell model to evaluate mechanisms relevant to CNS inflammation. Differentiation with phorbol-12-myristate-13-acetate (PMA) causes THP-1 monocyte cells to acquire functional and morphological resemblance to macrophages. LPS interacts with THP-1 differentiated macrophage through the toll-like receptor 4, triggering the inflammatory response and stimulating pro-inflammatory cytokine release and eventually leading to cellular death. Test compounds were investigated for whether they have anti-inflammatory effects on LPS-challenged macrophage cultures. THP-1-differentiated macrophages were treated with test compounds for 20 minutes, followed by 24 hrs of LPS challenge. Culture supernatants were then collected to analyzed for the presence of pro-inflammatory cytokines: interleukin 1β (IL--1β), interleukin 6 (IL-6) and tumor necrosis factor α (TNF-α).
Cytokine quantification in cell culture supernatants was accomplished by homogeneous time resolved fluorescence (HTRF) kits to assess levels of IL-1β (Human IL-1β kit, #62HIL1BPEG, Cisbio) and IL-6 (Human IL-6 kit, 62HILO6PET, Cisbio), and by ELISA (Human TNF-α ELISA kit, KHC3011, ThermoFisher) to determine the levels of TNF-α.
Data analysis was performed via 1-way ANOVA with Tukey post-test compared to LPS treatment cultures using Prism statistical software (GraphPad). Tabular data indicates significance of reduction in culture supernatants for the indicated analyte at the indicated dose.

Another assay has as its system Prp-TDP43^A315T mice. Format: in vivo. How it is done:
Extranuclear accumulation of TDP-43 protein is a pathological hallmark of a number of neurological diseases. […] Male Prp-TDP43^A315T mice (N=10 mice per group) at 3 weeks of age were administered daily treatments of test compounds. Compound A19 was administered via subcutaneous injection, and Compound 5a and Compound 6a were administered via oral gavage. After 2 months of treatment, plasma samples were collected for cytokine quantification. […] Plasma IL-6 and TNF-α cytokine expression levels were determined using the ELISA method. The submandibular vein was punctured with a lancet and a blood drop was collected directly on a microtube containing EDTA as anticoagulant. Samples were centrifuged for 15 minutes at 1000×g at 4° C. within 20 minutes of collection. 20 μl of plasma supernatant was stored at −20° C. before ELISA analysis.
Plasma was diluted at 1:10 in sterile PBS, and IL-6 and TNF-α quantification was performed in duplicate for each animal using 10 μl of sample per well in 96-well plates using the ELISA method (IL-6: Signa-Aldrich Cat #RAB0308, TNF-α: Sigma-Aldrich Cat #RAB0477). Statistical analysis was carried out by 2-way ANOVA with Dunnett's multiple comparisons post-test with compound-treated samples compared to vehicle-treated samples.

Assay [4] deals with primary culture of both cortical neurons and microglia. The assay can be described thus: Microglial activation (Iba1 area) after Aβ1-42 challenge. Particulars: 5 ng/ml; 15 min Pre-Aβ challenge. Format: cell-based.
Setting [5] is: 2 months of treatment, doses as in the value.

Turning to `CCC(C)CN1CC2N(Cc3ccc(OC(F)F)cc3)CCC(=O)N2[C@@H](C)C1=O` (some centres unmarked) [Compound 6a], the “Significance of neuroprotection vs 1 uM LPS” value in assay [1] (dose 0.1 nM), in assay [1] (dose 1 nM), in assay [1] (dose 10 nM), in assay [1] (dose 100 nM) and in assay [1] (dose 1 μM) was “+++ (+++ indicates p<0.001)” each time. The “Protection of primary neurons from LPS-stimulated inflammatory toxicity (in words)” value in assay [2] is “protected primary neurons from LPS-stimulated inflammatory toxicity”. Moreover, the “Expression of IL-1β and TNF-α (result in words)” value in assay [3] (at at least one tested dose) is listed as “significantly reduced”. For the same compound, the “Significant reduction in pro-inflammatory cytokine expression: IL-1β” value in assay [3] (dose 0.1 nM) is listed as “NS”; in assay [3] (dose 10 nM), “NS”; in assay [3] (dose 1000 nM) it was “+ (“+” indicates a p value <0.05 in Tukey post test)”. In addition, the “Significant reduction in pro-inflammatory cytokine expression: IL-6” value in assay [3] (dose 0.1 nM), in assay [3] (dose 10 nM) and in assay [3] (dose 1000 nM) was “NS” throughout. In addition, the “Significant reduction in pro-inflammatory cytokine expression: TNF-α” value in assay [3] (dose 0.1 nM) is “NS”; in assay [3] (dose 10 nM), “NS”; in assay [3] (dose 1000 nM), “+ (“+” indicates a p value <0.05 in Tukey post test)”. In addition, the “Significant decrease in plasma cytokine expression after 2 months of treatment: IL-6” value in the assay with Prp-TDP43^A315T mice (10 mg/kg PO daily) and in the assay on Prp-TDP43^A315T mice (20 mg/kg PO daily) was “++++ (++++ = p < 0.0001)” in each case. The “Significant decrease in plasma cytokine expression after 2 months of treatment: TNF-α” value with Prp-TDP43^A315T mice (10 mg/kg PO daily) and with Prp-TDP43^A315T mice (20 mg/kg PO daily) was “++++ (++++ = p < 0.0001)” in each case. Further, in the assay on Prp-TDP43^A315T mice (setting [5]), the “Plasma IL-6 expression (result in words)” value is “significantly reduced expression of both cytokines at doses of 10 and 20 mg/kg”. Moreover, the “Plasma TNF-α expression (result in words)” value in the assay with Prp-TDP43^A315T mice (setting [5]) is “significantly reduced expression of both cytokines at doses of 10 and 20 mg/kg”.

Take “HGF: Hepatocyte growth factor, 5 ng/ml treatment in the microglia culture”: the “Significant decrease in Iba1 area, compared to vehicle treated (Aβ challenge)” value in assay [4] is reported as “+ (“+” indicates a p value < 0.05 in Fisher's LSD post-test compared to Aβ challenged)”.
